Counter-ions that a name gives are not always drawn.
Assays:
[1] = system: pentagastrin stimulated gastric acid secretion; assay: Rat lumen perfused stomach (pentagastrin stimulated gastric acid secretion); type: in vivo; conditions: iv, i.v. administration, 10 μmole/kg, read-out: Rat G.S. % inhibition @ 10 μmole/kg
Excerpt: Using a modification of the procedure described by Ghosh and Schild (Br. J. Pharmacology, 13, 54, 1958), the compounds of the following Examples were found on i.v. administration at a concentration of 10 μmole/kg to cause an inhibition of pentagastrin stimulated gastric acid secretion as indicated in the following Table.

isolated rat osteoclasts = assay: Bone resorption by isolated rat osteoclasts on cortical bone slices; type: cell-based; conditions: Osteoclast, 18 hours, control = 100 ± 27, Mean ± SEM, n = 12
Protocol: Bone resorption was measured by the actions of isolated rat osteoclasts on cortical bone slices (Zaidi et al Quarterly Journal of Experimental Physiology 1988 73:471-485). Newborn Wistar rats were killed by decapitation and their femora and tibiae removed. Osteoclasts were mechanically disaggregated by curetting the bones into medium followed by agitation with a pipette. Osteoclasts were separated from other cells by sedimentation onto bone slices (15 minutes, 37°) after which the slices were removed and gently washed. The bone slices were then incubated in the presence of test compounds (37°, 10% humidified CO2, 18 hours) and fixed with glutaraldehyde. The degree of bone resorption was then assessed by the area of erosions produced by the osteoclasts using scanning electron microscopy. Data were meaned from measurements of 6 bone slices in each of two independent experiments.
Test compounds were dissolved in ethanol which was also added to control incubations (1%) in the absence of compound.

Row | Compound | inhibition in vivo at 10 µmol/kg [1] | other results
1 | Cc1ccccc1CNc1nc(N(C)c2ccccc2)c2ccccc2n1 [Example 31, 2-(2-methvlbenzylamino)-4-(N-methylphenylamino)quinazoline hydrochloride] | 8% | –
2 | COc1cccc2c(Nc3ccccc3C)nc(N(C)C)nc12 [Example 5, 2-dimethylamino-8-methoxy-4-(2-methylphenylamino)quinazoline] | 37% | –
3 | Cc1cc(O)ccc1Nc1nc(N(C)c2ccccc2)c2ccccc2n1 [Example 30, 2-(4-hydroxy-2-methylphenyl)amino1-4-(N-methylphenylamino) quinazoline hydrochloride] | 23% | –
4 | COc1ccccc1Nc1nc(N)nc2c(OC)cccc12 [Example 18, 2-amino-8-methoxy-4-(2-methoxyphenylamino)quinazoline] | 12% | –
5 | CN(c1ccccc1)c1nc(Nc2ccccc2)nc2ccccc12 [Example 27, 2-phenylamino-4-(N-methylphenylamino)quinazoline hydrochloride] | 71% | –
6 | Cc1ccccc1Nc1nc(N(C)c2ccccc2)nc2ccccc12 [Example 22, 2-(N-methylphenylamino)-4-(2-methylphenylamino)quinazoline hydrochloride] | 27% | –
7 | Cc1ccccc1Nc1nc(NCCc2ccccc2)nc2ccccc12 [Example 16, 2-phenylethylamino-4-(2-methylphenylamino)quinazoline] | 31% | –
8 | Cc1ccccc1CNc1nc(N)nc2ccccc12 [Example 25, 2-amino-4-(2-methylbenzylamino)quinazoline] | 24% | –
9 | COc1cccc2c(Nc3ccccc3C)nc(N3CCCC3)nc12 [Example 15, 2-pyrrolidino-8-methoxy-4-(2-methylphenylamino)quinazoline] | 31% | –
10 | COc1cccc2c(NCc3ccccc3C)nc(N)nc12 [Example 4, 2-amino-8-methoxy-4-(2-methylbenzylamino)quinazoline] | 37% | –
11 | Cc1ccccc1Nc1nc(N(C)c2ccccc2)c2ccccc2n1 [Example 26, 2-(2-methylphenylamino)-4-(N-methylphenylamino)quinazoline hydrochloride] | 79% | –
12 | Cc1cc(F)ccc1Nc1nc(N(C)c2ccccc2)c2ccccc2n1 [Example 32, 2-(2-methyl-4-fluorophenyl)amino]-4-(N-methylphenylamino)quinazoline hydrochloride] | 96% | –
13 | Cc1ccccc1Nc1nc(N2CCCC2)nc2ccccc12 [Example 8, 2-pyrrolidino-4-(2-methylphenylamino)quinazoline] | 17% | –
14 | COc1cccc2c(Nc3ccccc3C)nc(N(C)c3ccccc3)nc12 [Example 21, 2-(N-methylphenylamino)-4-(2-methylphenylamino)-8-methoxyquinazoline] | 37% | –
15 | CCc1ccc2nc(N)nc(Nc3ccccc3C)c2c1 [Example 11, 2-amino-4-(2-methylphenylamino)-6-ethylquinazoline] | 28% | –
16 | CN(c1ccccc1)c1nc(N(C)c2ccccc2)c2ccccc2n1 [Example 20, 2,4-Bis-(N-methylphenylamino)quinazoline hydrochloride] | 72% | –
17 | Cc1ccccc1Nc1nc(N)nc2ccccc12 [Example 7, 2-amino-4-(2-methylphenylamino)quinazoline] | 20% | –
18 | Cc1ccccc1Nc1nc(N)nc2c(C)cccc12 [Example 6, 2-amino-8-methyl-4-(2-methylphenylamino)quinazoline] | 48% | –
19 | COc1cccc2c(NCc3ccccc3)nc(N)nc12 [Example 2, 2-amino-8-methoxy-4-benzylaminoquinazoline] | 25% | –
20 | COc1cccc2c(N(C)c3ccccc3)nc(N)nc12 [Example 29, 2-amino-4-(N-methylphenylamino)-8-methoxyquinazoline hydrochloride] | 13% | –
21 | COc1ccc(Nc2nc(N)nc3c(OC)cccc23)c(C)c1 [Example 3, 2-amino-8-methoxy-4-(2-methyl-4-methoxyphenylamino)quinazoline] | 16% | –
22 | Cc1cc(F)ccc1Nc1nc(N(C)c2ccccc2)c2cc(O)ccc2n1 [Example 56, 4-(N-methylphenylamino)-2-[(2-methyl-4-fluorophenyl)amino]-6-hydroxyquinazoline hydrochloride] | – | activity at 10 µM (isolated rat osteoclasts; 10 μM): 7 ± 4%; activity at 100 µM (isolated rat osteoclasts; 100 μM): 7%
23 | COc1cccc2c(Nc3ccccc3C)nc(N)nc12 [Example 1, 2-amino-8-methoxy-4-(2-methylphenylamino)quinazoline] | 60% | –
24 | COc1cccc2c(N(C)c3ccccc3)nc(Nc3ccccc3C)nc12 [Example 24, 4-(N-methylphenylamino)-2-(2-methylphenylamino)-8-methoxyquinazoline] | 97% | –
25 | CNc1nc(Nc2ccccc2C)c2cccc(OC)c2n1 [Example 13, 2-methylamino-8-methoxy-4-(2-methylphenylamino)quinazoline] | 20% | –

— patent US5064833A, “Substituted quinazoline derivatives for use in gastrointestinal diseases” (Smithkline Beecham Intercredit B.V., priority 1989, dated 1991)
